From publication PMC5548745, “Agonist-induced dimer dissociation as a macromolecular step in G protein-coupled receptor signaling” (Nature Communications, 2017)
Entries after “also recorded” stand apart in the source; their conditions may differ.

Assays:
[1] = circular dichroism of synthetic TM peptides; type: physicochemical
Protocol: (§1) CD spectra were recorded using a J-810 spectropolarimeter (Jasco, Easton, MD, USA) in a 0.1 cm quartz cuvette. Far-UV CD spectra were collected over 190–260 nm. ITC measurements were carried out at 20 °C on an ITC (VP–ITC 200, MicroCal). 820 µM FZD6 TM5 and 165 µM FZD6 TM4 were dissolved in 0.5% DDM in water. 2 µl of TM5 peptide were injected into 260 µl TM4 during each titration. The ITC data were analyzed with the Origin 7.0 software.
Supplementary Figure 5: Circular dichroism (CD) and isothermal titration calorimetry (ITC) experiments for structural analysis of synthetic peptides resembling TM1, 4, 5 and mutant TM5 and of peptide-peptide interactions, related to Figure 3. Synthetic peptides (for sequence see Supplementary Fig. 9) resembling TM1 (a), 4 (b), 5 (c) and mutant TM5 (d) were used for CD experiments in triple distilled water with increasing DDM concentrations (0% DDM – black, 0.01% DDM – blue, 0.1% DDM – green and 0.5% DDM – red). (c)TM5 is unstructured in TDW and begins to gain structure at 0.1% DDM. It forms a clear α-helical structure in 0.5% DDM. The triple mutated TM5 (d) forms an α-helix in a much lower DDM concentration (0.01% DDM). […]

[2] = test system: TM4 peptide of FZD6; assay: analytical size-exclusion chromatography of TM peptides; type: binding, human; settings: TDW + 0.01% DDM; 500 µM each peptide; Superdex 30; 0.8 ml min^−1; room temperature; 215 nm; 2 h incubation
Protocol: Analytical SEC was performed on an ÄKTA Explorer with a Superdex 30 analytical column (GE Healthcare) equilibrated with TDW + 0.01% DDM. Peptides were eluted with a flow rate of 0.8 ml min^−1 at room temperature. Elution profile was monitored by UV absorbance at 215 nm. For the binding experiments, the peptides were incubated together in TDW + 0.01% DDM at room temperature for 2 h.

[3] = target: T1, FZD6-TM4 (Homo sapiens, UniProt O60353); assay: isothermal titration calorimetry of TM peptides; type: binding; settings: 820 µM TM5 or TM5 mut into 165 µM TM4; 0.5% DDM; 20 °C; one set of sites
T1 construct: purchased Pepscan Therapeutics (Lelystad, Netherlands); host or cells: chemical synthesis (Fmoc solid phase)
T1 sequence (O60353 with tags, fused parts or gaps limits assumed): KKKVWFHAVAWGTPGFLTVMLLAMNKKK
Protocol: as §1

[4] = CD, triple distilled water with 0, 0.01, 0.1, 0.5% DDM

DDM concentration at which α-helix forms [1, 4] [%]	DDM concentration at which peptide begins to gain structure [1, 4] [%]	secondary structure in detergent (CD) ([1]; DDM detergent solution, lipophilic environment)	secondary structure in TDW (CD) ([1]; triple distilled water, 0% DDM, 190–260 nm)	Sequence	SEC elution volume in combination with TM4 [2]	ITC affinity (dissociation constant, K D) to TM4 [3]
0.01	–	–	–	WKKLAASAAFVLLPLCLCVFVGLSLLLAGIISKKK [TM5 mut, TM5 peptide with D365A, R368A, Y369A mutations]	did not result in a shift to a higher elution volume	does not interact
0.5	0.1	structured and α-helical	unstructured	KKLDASRYFVLLPLCLCVFVGLSLLLAGIISKKK [TM5, synthetic peptide of FZD6 transmembrane helix 5]	eluted at a greater volume than TM4 and TM5 alone	micromolar affinity; also recorded: in the micromolar range
